Reference: patent publication US20250263404A1, “AMINOPYRIDINES AS ACTIVATORS OF PI3 KINASE” (UCL Business Ltd, priority 2021, published 2025)

What was measured:
LCK = LCK (Homo sapiens, UniProt P06239); experiment: SelectScreen kinase profiling, LCK; format: biochemical; conditions: 1 μM of 1938, 50 μM ATP
Description: (§1) 133 protein kinases and 7 lipid kinases were counterscreened, with […] used at 1 μM, using the Adapta, Lantha and Z-LYTE assays (SelectScreen Kinase Profiling Service; Thermofisher—experimental details of these assays can be found here: https://www.thermofisher.com/uk/en/home/industrial/pharma-biopharma/drug-discovery-development/target-and-lead-identification-and-validation/kinasebiology/kinase-activity-assays.html. The tree representation in KinMap generated courtesy of Cell Signaling Technology, Inc. (www.cellsignal.com). mTORC1 (mTOR/RAPTOR/LST8) protein complex and ATM kinase and substrates were produced as previously described (Anandapadamanaban, M. et al. Science (New York, NY 366, 203-210 (2019); Baretic, D. et al. Sci Adv 3, e1700933 (2017). Screening of 1938 was conducted using SuperSep Phos-Tag 50 μmol/l 100×100×6.6 mm 17-well (192-18001/199-18011) gels. For ATM assays, 100 nM ATM was incubated for 30 min at 30° C. with 5 μM GST-p53 and 1 mM ATP, in the absence or presence of 200 μM 1938 in ATM Kinase Buffer (50 mM HEPES pH 7.5, 100 mM NaCl, 10% glycerol, 2 mM […], 5 mM MgCl2). […] Gels were then stained using InstantBlue™ Coomassie stain, and then quantified using BioRad Image Lab Software. […]

[1] = system: adult rat dorsal root ganglion (DRG) cultures; experiment: Neurite outgrowth in dissociated adult rat DRG cultures; format: cell-based; conditions: 72 h
Excerpt: Given that there are currently no small molecule clinical-stage treatments routinely used to stimulate neuronal regeneration such as for injury to peripheral nerves, the spinal cord or optic nerves, we explored the potential of PI3Kα activation in this context.
Dorsal root ganglion (DRG) neurons were isolated from adult male (>250 g) Wistar rats as described, with DRGs from each rat cultured separately (Rayner, M. L. D. et al. Anatomical record 301, 1628-1637 (2018)). Following culling via schedule 1 (rising concentration of CO2), the spinal column was removed and stored in PBS on ice. Cord tissue was removed to expose the DRG and roots in the intervertebral foramen and the DRGS removed with forceps and scalpel under a dissecting microscope (Olympus SZ40). DRGs were manually cleaned by removal of roots, capsule and capillaries with forceps and then placed in DMEM supplemented with P/S. DRGs were treated with 0.125% collagenase type IV solution at 37° C. for 90 min, and then mechanically dissociated by trituration using a 1 ml pipette. The collagenase solution was removed by 2 rounds of centrifugation in complete DMEM (DMEM with 1% P/S and 10% FBS) at 400×g for 5 min, followed by resuspension of the DRG cell pellet in complete DMEM supplemented with 0.01 mM cytosine arabinoside. DRGs were plated in 75-cm^2 flasks coated with 0.1 mg/ml poly-D-lysine and incubated at 37° C., 5% CO2. […]

[2] = target: T1, mTORC1 (mTOR/RAPTOR/LST8 complex) (Homo sapiens, UniProt P42345); experiment: mTORC1 kinase assay (Phos-tag gel); format: biochemical; conditions: 200 μM 1938
T1 construct: made in house
Description: as §1

Chain of LCK (P06239 whole entry): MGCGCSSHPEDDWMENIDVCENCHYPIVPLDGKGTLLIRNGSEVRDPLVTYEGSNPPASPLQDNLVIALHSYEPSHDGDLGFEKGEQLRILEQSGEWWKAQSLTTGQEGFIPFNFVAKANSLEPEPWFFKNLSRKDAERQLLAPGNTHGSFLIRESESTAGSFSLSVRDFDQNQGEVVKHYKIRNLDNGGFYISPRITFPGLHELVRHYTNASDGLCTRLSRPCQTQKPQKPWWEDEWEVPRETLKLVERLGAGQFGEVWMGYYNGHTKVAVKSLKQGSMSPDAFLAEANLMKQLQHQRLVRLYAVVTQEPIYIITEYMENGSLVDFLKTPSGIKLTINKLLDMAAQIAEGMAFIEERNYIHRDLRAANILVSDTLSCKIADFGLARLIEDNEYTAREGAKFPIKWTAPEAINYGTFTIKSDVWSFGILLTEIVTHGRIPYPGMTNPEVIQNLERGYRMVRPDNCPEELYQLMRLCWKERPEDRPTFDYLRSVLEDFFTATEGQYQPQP

inhibition of LCK (LCK): 58%
activity of mTORC1 [2]: did not affect
SMILES: CCN1CCN(c2ccc(Nc3cc(Nc4cccc5c4N(C(C)=O)CC5)ccn3)cc2)CC1 [Example 1938]
neurite outgrowth ([1]; dose-dependent): significantly increased neurite outgrowth
total length of neurites ([1]; higher 1938 concentrations): doubling the total length of neurites
